“And” between values parts separate entries of the source, which are not always exact repeats. Identical values can stand only once.
Columns and labels:
human cell lines = test: Cytotoxicity under continuous drug exposure, mean over human cell lines; type: cell-based; conditions: continuous drug exposure over approx. 5 cell doubling times, read-out: mean IC50 value for human cell lines
Procedure: The latter value compared with 2 µM for the 4-pyridyl-quinoline analogue, 0.76 µM for amsacrine, 0.1 µM for the amsacrine analogue 4'-(9-[4-[N-methylcarboxamido]-5-methyl]-acridinylamino)-methanesulphon-m-anisidide ("CI-921") and 81 µM for etoposide.

[1] = system: P388 murine leukaemia (P/ACTD); test: Sensitivity of multidrug resistant P388 subline in vivo
Procedure: A multidrug resistant subline of P388 murine leukaemia (P/ACTD) was tested for sensitivity to DACA. This line was cross-resistant to actinomycin D, doxo-rubicin, mitoxantrone, etoposide and vincristine. Its resistance to vincristine was overcome by the presence of verapamil (10 µM). It stained for the presence of P-glycoprotein, consistent with the presence of transport-mediated multidrug resistance.

[2] = system: advanced colon 38 tumours; test: Tumour growth delay, advanced subcutaneous colon 38 tumours in mice; type: in vivo
Procedure: Colon 38 carcinoma was obtained from the Mason Research Institute (Worchester, MA, USA) and was grown in BDF1 hosts. Tumour fragments (1 mm^3) were implanted subcutaneously in anaesthetised mice. Tumours had grown to the appropriate size 9 days after implantation. A melanoma tumour line (WADH) was developed in the Cancer Research Laboratory. Tumour cells were grown in culture and 1 x 10^6 cells were implanted intradermally into the flank of nude (C57BI/J genetic background) mice. Mice were grown under sterile surroundings until tumours were of appropriate size.
Tumours were measured 3x (colon 38) or 2x (xeno-graft) weekly with callipers and tumour volumes calculated as 0.52a^2b, where a and b were the minor and major tumour axes. Tumour growth delays were measured at a time when tumour volumes of treated and control animals had increased by 4-fold.
The effects of five compounds, • (i) DACA • (ii) N-[2-(dimethylamino)ethyl]-9-methoxyphen-azine-1-carboxamide (compound 28 of J. Med. Chem., 1987, 30, 843-851), • (iii) N-[2-(dimethylamino) ethyl]-2-phenylquino-line-8-carboxamide (compound 6 of J. Med. Chem. 1988, 31, 1048-1052), • (iv) N-[2-(dimethylamino)ethyl]-2-(4-pyridyl)-guinoline-8-carboxamide (compound 18 of J. Med. Chem., 1989, 32, 396-401), and • (v) N-[2-(dimethylamino)ethyl]-9-bromo-dibenzo-[1,4]-dioxin-1-carboxamide (compound 20 of J. Med. Chem. 1992, 35, 258-266) on the growth of advanced colon 38 tumours in mice was investigated by implanting tumour fragments subcutaneously and allowing them to grow until they had reached a diameter of 5-8 mm.

B1A = test: Resistance factor, drug-resistant Jurkat leukaemia subline; type: cell-based, human; conditions: B1A (from B1 by exposure to amsacrine); ratio of IC50 resistant line / parent line
Procedure: (§1) Tumour cell lines were cultured in 96-well plates. Growth of NCI cell lines was assessed using sulpho-rhodamine B staining (Skehan P., et al., J. Natl. Cancer Inst. 1990, 82, 1107-1112), that of the leukaemia lines with (4,5-dimethylthiazole-2-yl)-2,5-diphenyltetrazolium (MTT) staining (Mosmann T., J. Immun. Methods 1983, 65, 55-63) and that of the primary human tumour material by ^3H-thymidine incorporation (Marshall E.S., et al., J. Natl. Cancer Inst. 1992, 84, 341-344). Primary tumour material was cultured in 96-well plates in which the wells were coated with agarose to inhibit selectively the growth of normal cells. (Marshall E.S., et al., J. Natl. Cancer Inst. 1992, 84, 341-344). Primary cultures were incubated at 37°C in sealed perspex boxes containing a humidified atmosphere of 5% CO2 and 5% O2 in nitrogen for 7 days. 5-Methyl-[^3H]-thymidine (20 Ci.mmol^-1; 0.04 µCi per well), thymidine and 5-fluorodeoxyuridine (each at final concentrations of 0.5 µM) were added in medium to cultures (20 µl per well) 24 h before terminating the cultures. Cells were aspirated on to glass fibre filters using a multiple automated sample harvester (LKB Wallac OY Beta Harvester). The filter discs were washed for 15 seconds with water, dried, and the amount of tritium retained quantified by liquid scintillation.
(§2) IC50 values were defined as in Paull K.D., et al., J. Natl. Cancer Inst. 1989, 81:1088-1092, where growth, as indicated by staining or thymidine incorporation, corresponded to 50% of that of the control cultures. […] Variances of DELTA values were expressed as standard deviations in log10 units. Comparison of DELTA values was made using Pearson correlation coefficients. Resistance factors were defined as the ratios of IC50 values between the resistant line and the parent line. Statistical evaluation was performed either with NCI programmes, with RS/1 software (BBN Research Systems, Cambridge, MA, USA), or with Sigmaplot (Jandel Scientific, San Rafael, CA, USA).
(§3) The effect of DACA on the growth of cultured cells was assessed by continuous drug exposure. […] Four multidrug-resistant cell lines, developed from JL and JB1 by in vitro exposure to increasing concentrations of doxorubicin (LD and B1D) or amsacrine (LA and B1A) (Finlay G.J., et al., J. Natl. Cancer Inst. 1990, 82, 662-667, Snow K., et al., Br. J. Cancer 1991, 63, 17-28) were tested.
(§4) DACA was compared with six other drugs including four topo II poisons, doxorubicin, mitozantrone, etopo-side and amsacrine. […]

B1D = test: as above; type: cell-based, human; conditions: B1D (from B1 by exposure to doxorubicin); ratio of IC50 resistant line / parent line
Procedure: as §1, §2, §3, §4

LA = test: as above; type: cell-based, human; conditions: LA (from L by exposure to amsacrine); ratio of IC50 resistant line / parent line
Procedure: as §1, §2, §3, §4

LD = test: as above; type: cell-based, human; conditions: LD (from L by exposure to doxorubicin); ratio of IC50 resistant line / parent line
Procedure: as §1, §2, §3, §4

CN(C)CCNC(=O)c1cccc2cc3ccccc3nc12 [DACA, N-[2-(dimethylamino)ethyl]acridine-4-carboxamide]
IC50 (human cell lines): 1300 nM
sensitivity of P/ACTD line [1]: sensitive
Growth delay ([2]; 100mg/kg each injection, ip, 2 doses, 0, 60 min, listed as (i)): 10 days and 12 days
Growth delay ([2]; 4 injections at 30 minute intervals, 180 + 120 + 120 + 120 µmol/kg, q7 days x 3): 21 days
Growth delay ([2]; day 11 after implantation, 3 injections at 4-day intervals): 4 days
Growth delay ([2]; i.p. single maximum tolerated dose 150 mg/kg body weight, Figure 5): 5 days
Growth delay ([2]; repetition of divided doses (200 mg/kg), Figure 5): 23 days
Growth delay ([2]; total dose 100 (mg/kg) ip, single dose (SD)): 4 days
Growth delay ([2]; total dose 150 ip, 2 doses, 0, 60 min): 5 days
Growth delay ([2]; total dose 150 ip, SD): 5 days
Growth delay ([2]; total dose 150x3 ip, SD every week x 3): 7 days
Growth delay ([2]; total dose 200 ip, 2 doses, 0, 30 min): 7 days
Growth delay ([2]; total dose 200 ip, 2 doses, 0, 60 min (2 expts)): 10 days and 12 days
Growth delay ([2]; total dose 200 ip, 2 doses, 0, 24 hours): 6 days
Growth delay ([2]; total dose 200 ip, 4 doses, 0, 30, 60, 90 min (65 + 45 + 45 + 45 mg/kg)): 6 days
Growth delay (days) ([2]; total dose 200 ip, SD): toxic
Growth delay ([2]; total dose 200 iv, 1 hour infusion): 7 days
Growth delay ([2]; total dose 200 iv, 3 hour infusion): 6.5 days
Growth delay ([2]; total dose 200x3 ip, (4 doses, 0, 30, 60, 90)x3): 23 days
Growth delay ([2]; tumour 5-8 mm, after adjustment of the administration schedule): more than 21 days
Growth delay ([2]; tumour 5-8 mm, intermittent schedule 270 mg/kg q7 days x 3): 3 days
Growth delay ([2]; tumour 5-8 mm, intermittent schedule 400 mg/kg q7 days x 3): 7 days
Resistance factors (B1A): 3.9
Resistance factors (B1D): 1.9
Resistance factors (LA): 2.0
Resistance factors (LD): 2.5

Source: EP0642343B1, “Acridine carboxamides for the treatment of cancer” (XENOVA LIMITED, priority 1992, dated 1993)
